Series [1] has as its target T1, nanobit-large-bit-ERK2 and nanobit-small-bit-PEA15 in WM793 cells (Homo sapiens, UniProt P28482).
T1 construct: expressed in transfected cells
Kind of series: NanoBiT assay. The class given is cell-based. Conditions: WM793 nanobit stable cell line, overnight incubation; read-out: NanoBiT qualified absolute AC50. The method in brief: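 WM793 cells stably expressing LgBiT-ERK2 and SmBiT-PEA15, treated overnight at 37 °C with a 10-point 3-fold dilution series, top final 30 μM. Luminescence was read and normalized to DMSO wells to give percent inhibition. IC50 was fitted from dose-response curves.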

The subject of a further series is WM793 cells. Nature of the series: Cell proliferation assay (CellTiter-Glo). The class given is cell-based. Conditions: Homo sapiens, WM793, 72 h, 3 d, read-out: Cell proliferation qualified AC50. A digest of the protocol:
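WM793 cells in RPMI + 10% FBS, 750 cells/well, treated 3 d at 37° C with 10-point 3-fold dilutions (highest 20 μM). CellTiter-Glo luminescence at Day 0 and Day 3; percent growth inhibition normalized to Day 3 DMSO wells and Day 0 counts, and IC50 taken from dose-response curves.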

Series [2] concerns the target T2, ERK2[2-360(p-T185/p-Y187)]-Avi (Homo sapiens, UniProt P28482).
T2 construct: 400 pM ERK2[2-360(p-T185/p-Y187)]-Avi was added to the plate
Nature of the series: Biochemical assay (HTRF competition assay). The class given is binding. Conditions: HTRF competition with Example 15 probe, overnight at RT; read-out: Biochemical qualified AC50. (In general: In TR-FRET formats the signal depends on donor and acceptor labels being close together.)

The test system of series [3] is WM793 BRAFV600E tumor xenograft. Kind of series: Anti-tumor activity and tolerability in WM793 BRAFV600E tumor xenograft in nude mice. The class given is in vivo.

T1 sequence (P28482 whole entry): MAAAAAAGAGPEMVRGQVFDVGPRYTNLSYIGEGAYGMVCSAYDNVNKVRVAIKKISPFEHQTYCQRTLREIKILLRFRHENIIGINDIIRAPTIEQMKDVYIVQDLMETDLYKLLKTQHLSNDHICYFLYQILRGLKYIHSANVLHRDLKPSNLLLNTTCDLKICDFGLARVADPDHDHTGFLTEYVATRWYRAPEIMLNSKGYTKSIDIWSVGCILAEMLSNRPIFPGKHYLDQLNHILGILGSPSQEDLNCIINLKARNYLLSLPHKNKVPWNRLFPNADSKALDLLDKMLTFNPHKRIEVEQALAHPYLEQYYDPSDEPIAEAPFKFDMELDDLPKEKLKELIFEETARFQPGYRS
T2 sequence (P28482 2-360 limits assumed): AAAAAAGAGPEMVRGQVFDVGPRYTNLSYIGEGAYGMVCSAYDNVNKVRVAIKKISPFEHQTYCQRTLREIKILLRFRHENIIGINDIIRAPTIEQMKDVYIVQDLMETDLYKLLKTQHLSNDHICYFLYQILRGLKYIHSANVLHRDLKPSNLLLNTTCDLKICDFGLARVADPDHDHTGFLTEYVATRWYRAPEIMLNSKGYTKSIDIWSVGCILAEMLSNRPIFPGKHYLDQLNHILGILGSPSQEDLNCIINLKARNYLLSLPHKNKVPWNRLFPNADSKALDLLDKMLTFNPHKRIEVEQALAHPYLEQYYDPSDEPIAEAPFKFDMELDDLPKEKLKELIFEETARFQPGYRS

On to `CN1C[C@@H](F)[C@@H](NC(=O)C2(c3ccc(F)cc3)CCN(C(=O)c3c(C=O)n(CC4CCOCC4)c4ccc(Cl)cc34)CC2)C1` [Example 13, 1-(5-chloro-2-formyl-1-((tetrahydro-2H-pyran-4-yl)methyl)-1H-indole-3-carbonyl)-N-((3S,4R)-4-fluoro-1-methylpyrrolidin-3-yl)-4-(4-fluorophenyl)piperidine-4-carboxamide], for which the results for the AC50 (in series [1]; in the series on WM793 cells; in series [2]) were 56 nM, 54 nM and 0.48 nM, respectively. In series [3] (highest dosing group (300 mg/kg bid 2 day on, 1 day off)), the “animals sacrificed due to increased body weight loss” value was “One mouse at the highest dosing group was sacrificed on day 11”. Further, in series [3] (per os, 300 mg/kg bid 2 day on, 1 day off, 14 days), the “anti-tumor activity (tumor volume) at the highest dose” value is “regression”. Besides, the “anti-tumor activity (tumor volume)” value in series [3] (per os, 30, 75, 150 mg/kg bid and 300 mg/kg bid 2 day on, 1 day off, 14 days) was “dose dependent antitumor activity”. For the same compound, the “Percent body weight change following first dose / tolerability” value in series [3] (per os, 30-300 mg/kg bid, 14 days) is “minimal body weight loss and is well tolerated”.

Values taken from patent publication US20250092036A1, “COMPOUNDS AND COMPOSITIONS FOR MODULATING THE ACTIVITY OF ERK” (Novartis AG, priority 2023, published 2025).
